Measured values: PMC4822888, “Subtype-Selective Small Molecule Inhibitors Reveal a Fundamental Role for Nav1.7 in Nociceptor Electrogenesis, Axonal Conduction and Presynaptic Release” (PLoS ONE, 2016)

Assays:
Abl kinase receptor = Abl kinase receptor (Homo sapiens, UniProt P00519); assay: Off target activity panel; format: biochemical; details: read-out: Inhibition at test concentration (%)
[1] = target: Angiotensin converting enzyme (Homo sapiens, UniProt P12821); assay: Off target activity panel; format: biochemical; details: read-out: Inhibition at test concentration (%)
Angiotensin converting enzyme, sequence (P12821 30-1306): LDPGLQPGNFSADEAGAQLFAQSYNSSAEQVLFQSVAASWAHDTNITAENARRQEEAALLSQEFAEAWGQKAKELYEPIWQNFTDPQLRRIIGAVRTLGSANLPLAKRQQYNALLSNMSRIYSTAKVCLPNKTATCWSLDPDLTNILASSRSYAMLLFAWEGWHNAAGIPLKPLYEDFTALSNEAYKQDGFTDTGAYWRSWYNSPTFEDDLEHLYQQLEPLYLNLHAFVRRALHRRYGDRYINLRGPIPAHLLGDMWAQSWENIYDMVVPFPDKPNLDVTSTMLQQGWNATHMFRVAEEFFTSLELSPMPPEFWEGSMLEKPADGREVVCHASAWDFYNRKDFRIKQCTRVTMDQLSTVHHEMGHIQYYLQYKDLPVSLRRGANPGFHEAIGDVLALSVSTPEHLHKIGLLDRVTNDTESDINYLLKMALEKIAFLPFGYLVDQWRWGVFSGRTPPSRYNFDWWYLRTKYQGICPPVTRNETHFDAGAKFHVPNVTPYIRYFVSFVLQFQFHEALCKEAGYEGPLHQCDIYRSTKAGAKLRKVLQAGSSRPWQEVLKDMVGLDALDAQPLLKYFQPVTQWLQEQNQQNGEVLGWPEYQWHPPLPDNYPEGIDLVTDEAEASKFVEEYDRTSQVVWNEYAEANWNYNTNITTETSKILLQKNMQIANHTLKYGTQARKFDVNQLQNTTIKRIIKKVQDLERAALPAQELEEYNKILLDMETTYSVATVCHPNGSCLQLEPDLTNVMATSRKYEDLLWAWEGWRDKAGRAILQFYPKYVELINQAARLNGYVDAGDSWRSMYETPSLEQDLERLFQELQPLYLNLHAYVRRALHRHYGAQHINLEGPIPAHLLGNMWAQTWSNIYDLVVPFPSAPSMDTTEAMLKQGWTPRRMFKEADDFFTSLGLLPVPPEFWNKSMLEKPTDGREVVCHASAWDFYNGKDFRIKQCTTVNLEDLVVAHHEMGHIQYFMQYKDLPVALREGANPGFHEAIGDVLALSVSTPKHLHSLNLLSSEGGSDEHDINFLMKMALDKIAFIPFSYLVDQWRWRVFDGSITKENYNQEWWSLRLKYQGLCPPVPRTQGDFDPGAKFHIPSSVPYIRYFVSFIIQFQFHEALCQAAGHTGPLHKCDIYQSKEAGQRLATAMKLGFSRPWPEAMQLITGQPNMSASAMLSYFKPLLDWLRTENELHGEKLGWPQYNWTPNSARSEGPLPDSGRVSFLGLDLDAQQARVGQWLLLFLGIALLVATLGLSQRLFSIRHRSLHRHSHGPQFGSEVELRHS

GABA Benzodiazepine site = assay: Off target activity panel; format: binding; details: 10 µM
[2] = system: Calcium channel L-type (dihydropyridine site); assay: Off target activity panel; format: binding; details: 10 µM
Cannabinoid receptor 2 = Cannabinoid receptor 2 (Homo sapiens, UniProt P34972); assay: Off target activity panel; format: binding; details: read-out: Inhibition at test concentration (%)
Cannabinoid receptor 2, sequence (P34972 whole entry): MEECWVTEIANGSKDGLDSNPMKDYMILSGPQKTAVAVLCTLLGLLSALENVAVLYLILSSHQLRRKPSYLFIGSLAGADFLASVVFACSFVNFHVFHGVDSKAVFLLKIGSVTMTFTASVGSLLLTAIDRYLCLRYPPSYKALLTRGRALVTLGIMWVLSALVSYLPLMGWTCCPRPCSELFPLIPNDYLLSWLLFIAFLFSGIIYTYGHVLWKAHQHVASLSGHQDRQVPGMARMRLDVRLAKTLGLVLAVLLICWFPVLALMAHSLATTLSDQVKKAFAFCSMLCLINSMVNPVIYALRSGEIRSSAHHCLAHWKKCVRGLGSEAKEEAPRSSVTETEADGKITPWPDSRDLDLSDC

GABAA channel = assay: Off target activity panel; format: binding; details: 10 µM
PDE3B = PDE3B (Homo sapiens, UniProt Q13370); assay: Off target activity panel; format: biochemical; details: read-out: Inhibition at test concentration (%)
PDE3B, sequence (Q13370 whole entry): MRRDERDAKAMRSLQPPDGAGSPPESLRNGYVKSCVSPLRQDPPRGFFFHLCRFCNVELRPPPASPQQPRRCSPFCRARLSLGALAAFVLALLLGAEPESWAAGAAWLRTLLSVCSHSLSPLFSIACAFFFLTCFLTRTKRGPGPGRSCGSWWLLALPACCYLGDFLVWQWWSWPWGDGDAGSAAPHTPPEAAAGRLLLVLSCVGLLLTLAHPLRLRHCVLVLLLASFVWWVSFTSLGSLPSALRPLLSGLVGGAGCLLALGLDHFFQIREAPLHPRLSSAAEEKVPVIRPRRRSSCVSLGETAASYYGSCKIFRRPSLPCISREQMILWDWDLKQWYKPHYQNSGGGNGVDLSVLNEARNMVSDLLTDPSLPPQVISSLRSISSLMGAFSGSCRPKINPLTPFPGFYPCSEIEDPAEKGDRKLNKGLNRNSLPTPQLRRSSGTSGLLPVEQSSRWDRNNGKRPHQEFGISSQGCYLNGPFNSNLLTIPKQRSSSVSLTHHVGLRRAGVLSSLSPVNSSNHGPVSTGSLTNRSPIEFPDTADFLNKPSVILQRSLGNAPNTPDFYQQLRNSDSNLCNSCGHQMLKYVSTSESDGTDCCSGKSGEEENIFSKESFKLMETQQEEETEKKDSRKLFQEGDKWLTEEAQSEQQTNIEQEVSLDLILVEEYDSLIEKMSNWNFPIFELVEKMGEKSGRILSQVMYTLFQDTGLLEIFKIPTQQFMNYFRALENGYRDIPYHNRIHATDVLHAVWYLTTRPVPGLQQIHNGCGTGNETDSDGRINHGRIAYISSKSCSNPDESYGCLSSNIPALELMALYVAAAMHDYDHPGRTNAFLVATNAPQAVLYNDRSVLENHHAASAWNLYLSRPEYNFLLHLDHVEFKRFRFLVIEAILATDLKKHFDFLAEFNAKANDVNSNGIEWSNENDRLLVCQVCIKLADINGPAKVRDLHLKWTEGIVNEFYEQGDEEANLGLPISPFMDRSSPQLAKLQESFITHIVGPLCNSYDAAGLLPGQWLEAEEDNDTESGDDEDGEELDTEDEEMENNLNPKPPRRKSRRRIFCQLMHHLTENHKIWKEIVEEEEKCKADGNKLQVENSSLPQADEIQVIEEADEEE

Serotonin 5-HT1A = Serotonin 5-HT1A (Homo sapiens, UniProt P08908); assay: Off target activity panel; format: binding; details: read-out: Inhibition at test concentration (%)
Serotonin 5-HT1A, sequence (P08908 whole entry): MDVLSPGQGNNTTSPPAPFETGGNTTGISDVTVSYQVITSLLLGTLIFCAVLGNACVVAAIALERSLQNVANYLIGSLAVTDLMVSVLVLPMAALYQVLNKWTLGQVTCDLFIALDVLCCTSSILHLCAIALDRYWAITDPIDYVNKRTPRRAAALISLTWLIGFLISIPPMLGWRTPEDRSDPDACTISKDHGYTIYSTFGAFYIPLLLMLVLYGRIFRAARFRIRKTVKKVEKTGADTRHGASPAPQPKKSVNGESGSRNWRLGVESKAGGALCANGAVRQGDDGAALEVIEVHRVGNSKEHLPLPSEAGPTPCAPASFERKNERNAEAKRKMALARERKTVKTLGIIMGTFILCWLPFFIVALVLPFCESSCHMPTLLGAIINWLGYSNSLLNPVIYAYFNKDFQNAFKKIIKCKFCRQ

Kappa opioid receptor = Kappa opioid receptor (Homo sapiens, UniProt P41145); assay: Off target panel, functional activity (agonist/antagonist); format: biochemical; details: at 10 µM
Kappa opioid receptor, sequence (P41145 whole entry): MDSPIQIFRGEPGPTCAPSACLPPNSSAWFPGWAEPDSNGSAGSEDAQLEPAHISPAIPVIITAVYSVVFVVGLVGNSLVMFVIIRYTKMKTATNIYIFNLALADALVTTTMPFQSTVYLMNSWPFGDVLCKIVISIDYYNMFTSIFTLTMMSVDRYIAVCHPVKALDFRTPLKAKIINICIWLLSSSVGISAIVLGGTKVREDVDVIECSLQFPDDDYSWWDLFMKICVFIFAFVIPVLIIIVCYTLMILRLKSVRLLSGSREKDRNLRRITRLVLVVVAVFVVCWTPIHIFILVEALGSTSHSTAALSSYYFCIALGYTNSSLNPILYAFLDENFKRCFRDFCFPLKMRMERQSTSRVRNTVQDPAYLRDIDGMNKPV

Abl kinase receptor, sequence (P00519 whole entry): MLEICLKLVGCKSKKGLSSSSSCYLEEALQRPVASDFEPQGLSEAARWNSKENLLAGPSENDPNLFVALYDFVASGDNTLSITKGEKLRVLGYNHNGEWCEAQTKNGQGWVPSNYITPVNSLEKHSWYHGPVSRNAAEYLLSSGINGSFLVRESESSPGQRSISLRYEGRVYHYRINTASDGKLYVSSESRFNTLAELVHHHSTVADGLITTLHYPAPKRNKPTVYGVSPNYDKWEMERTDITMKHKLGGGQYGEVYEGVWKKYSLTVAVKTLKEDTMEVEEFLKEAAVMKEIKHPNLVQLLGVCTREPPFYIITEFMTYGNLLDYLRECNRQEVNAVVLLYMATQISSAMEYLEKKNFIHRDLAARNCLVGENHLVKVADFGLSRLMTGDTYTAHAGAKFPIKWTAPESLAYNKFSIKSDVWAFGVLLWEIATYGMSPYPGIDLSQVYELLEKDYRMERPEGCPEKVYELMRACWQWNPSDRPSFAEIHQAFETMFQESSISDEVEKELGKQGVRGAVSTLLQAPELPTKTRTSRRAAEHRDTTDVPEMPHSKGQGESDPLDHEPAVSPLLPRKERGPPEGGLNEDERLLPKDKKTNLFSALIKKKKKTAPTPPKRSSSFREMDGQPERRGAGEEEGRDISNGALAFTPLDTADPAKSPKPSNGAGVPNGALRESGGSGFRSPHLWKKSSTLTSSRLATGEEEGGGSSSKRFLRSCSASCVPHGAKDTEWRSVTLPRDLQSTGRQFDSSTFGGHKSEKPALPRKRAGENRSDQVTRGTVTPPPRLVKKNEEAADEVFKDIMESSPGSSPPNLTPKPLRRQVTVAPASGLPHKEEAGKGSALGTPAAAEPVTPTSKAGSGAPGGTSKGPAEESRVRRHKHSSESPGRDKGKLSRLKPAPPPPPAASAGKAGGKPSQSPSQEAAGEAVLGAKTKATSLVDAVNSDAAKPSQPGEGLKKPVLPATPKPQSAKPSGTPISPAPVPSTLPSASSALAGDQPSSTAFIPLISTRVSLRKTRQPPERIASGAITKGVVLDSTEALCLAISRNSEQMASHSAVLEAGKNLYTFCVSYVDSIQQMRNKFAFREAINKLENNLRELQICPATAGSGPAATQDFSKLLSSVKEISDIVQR

With `Nc1[nH]ncc1-c1cc(Cl)ccc1Oc1cc(F)c(S(=O)(=O)Nc2cscn2)cc1Cl` [PF-05089771, 4-[2-(5-amino-1H-pyrazol-4-yl)-4-chlorophenoxy]-5-chloro-2-fluoro-N-(1,3-thiazol-4-yl)benzenesulfonamide] the inhibition at 10 µM (Abl kinase receptor) was 9%, the inhibition at 10 µM [1] was -4% and the “Inhibition at test concentration (%)” value (GABA Benzodiazepine site) was 5%. For the same molecule, the “Inhibition at test concentration (%)” value [2] was 4%, the inhibition at 10 µM (Cannabinoid receptor 2) was -5% and the “Inhibition at test concentration (%)” value (GABAA channel) was 41%. For the same molecule, the inhibition at 10 µM (PDE3B) was 4%, the inhibition at 10 µM (Serotonin 5-HT1A) was 13% and the Functional activity (Kappa opioid receptor) was “no agonist or antagonist activity at 10 µM”.
